Assay results reported in ChEMBL document CHEMBL4402561, “Discovery of Potent Dual-Tailed Benzenesulfonamide Inhibitors of Human Carbonic Anhydrases Implicated in Glaucoma and in Vivo Profiling of Their Intraocular Pressure-Lowering Action” (J Med Chem, 2020).

Columns and labels:
[1] = molecular target: Carbonic anhydrase 4 (Homo sapiens, UniProt P22748)
Description: Inhibition of recombinant human carbonic anhydrase 4 incubated for 6 hrs prior to testing measured for 10 to 100 secs by phenol red-based stopped-flow CO2 hydration assay

[2] = molecular target: Carbonic anhydrase 7 (Homo sapiens, UniProt P43166)
Description: Inhibition of recombinant human carbonic anhydrase 7 incubated for 6 hrs prior to testing measured for 10 to 100 secs by phenol red-based stopped-flow CO2 hydration assay

[3] = molecular target: Carbonic anhydrase 2 (Homo sapiens, UniProt P00918)
Description: Inhibition of recombinant human carbonic anhydrase 2 incubated for 6 hrs prior to testing measured for 10 to 100 secs by phenol red-based stopped-flow CO2 hydration assay

[4] = molecular target: Carbonic anhydrase 1 (Homo sapiens, UniProt P00915)
Chain of Carbonic anhydrase 1 (P00915 whole entry): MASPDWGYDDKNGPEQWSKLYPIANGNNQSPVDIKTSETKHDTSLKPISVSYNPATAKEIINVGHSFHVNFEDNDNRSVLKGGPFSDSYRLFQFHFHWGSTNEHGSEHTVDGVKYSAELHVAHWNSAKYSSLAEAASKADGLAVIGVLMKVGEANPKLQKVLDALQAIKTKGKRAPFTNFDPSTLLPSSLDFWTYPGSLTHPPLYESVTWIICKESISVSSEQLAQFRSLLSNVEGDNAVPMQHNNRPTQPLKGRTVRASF
Description: Inhibition of recombinant human carbonic anhydrase 1 incubated for 6 hrs prior to testing measured for 10 to 100 secs by phenol red-based stopped-flow CO2 hydration assay

[5] = test system: Oryctolagus cuniculus; assay: Antiglaucoma activity in hypertonic saline solution-induced New Zealand albino rabbit model of ocular hypertension assessed as reduction in intraocular pressure at 1% administered topically to eye measured after 240 mins by pneumotonometric- method; type: functional

Chain of Carbonic anhydrase 7 (P43166 whole entry): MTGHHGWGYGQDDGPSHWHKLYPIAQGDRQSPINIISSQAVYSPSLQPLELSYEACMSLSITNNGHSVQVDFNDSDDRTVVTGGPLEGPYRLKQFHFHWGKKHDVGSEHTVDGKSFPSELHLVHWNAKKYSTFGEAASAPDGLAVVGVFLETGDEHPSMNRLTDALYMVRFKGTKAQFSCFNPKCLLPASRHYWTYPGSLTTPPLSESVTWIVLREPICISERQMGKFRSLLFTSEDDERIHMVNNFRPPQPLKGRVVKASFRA
Chain of Carbonic anhydrase 4 (P22748 whole entry): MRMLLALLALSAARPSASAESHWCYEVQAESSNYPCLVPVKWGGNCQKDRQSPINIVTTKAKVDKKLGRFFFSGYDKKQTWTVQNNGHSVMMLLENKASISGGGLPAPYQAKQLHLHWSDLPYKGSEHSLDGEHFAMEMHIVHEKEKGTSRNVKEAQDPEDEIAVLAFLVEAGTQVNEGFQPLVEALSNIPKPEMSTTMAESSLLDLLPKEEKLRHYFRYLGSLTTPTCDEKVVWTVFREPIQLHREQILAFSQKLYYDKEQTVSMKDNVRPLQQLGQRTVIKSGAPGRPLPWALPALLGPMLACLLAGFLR

| Compound | Ki [1] | Ki [2] | Ki [3] | Ki [4] | Activity [5] |
| --- | --- | --- | --- | --- | --- |
| COc1ccc(N/N=C(\C(C)=O)C(=O)Nc2ccc(S(N)(=O)=O)cc2)cc1 | > 10000 nM | 3590 nM | 273 nM | 704 nM |  |
| CC(=O)/C(=C\c1ccccc1)C(=O)Nc1ccc(S(N)(=O)=O)cc1 | 958 nM | 44.4 nM | 4.4 nM | 68.7 nM |  |
| CC(=O)/C(=N\Nc1cccc([N+](=O)[O-])c1)C(=O)Nc1ccc(S(N)(=O)=O)cc1 | > 10000 nM | 792 nM | 71.4 nM | 751 nM |  |
| COc1ccc(/C=C(\C(C)=O)C(=O)Nc2ccc(S(N)(=O)=O)cc2)cc1 | 609 nM | 3.1 nM | 0.45 nM | 15.3 nM | 1.5 mmHg |
| CC(=O)/C(=C\c1ccc(F)cc1Cl)C(=O)Nc1ccc(S(N)(=O)=O)cc1 | 222 nM | 23.5 nM | 5.6 nM | 52.7 nM |  |
| CC(=O)/C(=C\c1cccs1)C(=O)Nc1ccc(S(N)(=O)=O)cc1 | 810 nM | 5.3 nM | 2.9 nM | 49.1 nM |  |
| CC(=O)/C(=C\c1ccc(Cl)cc1)C(=O)Nc1ccc(S(N)(=O)=O)cc1 | 145 nM | 4.3 nM | 0.61 nM | 41.1 nM | 1.3 mmHg |
| COc1ccc(N/N=C(\Cl)C(=O)Nc2ccc(S(N)(=O)=O)cc2)cc1 | 6420 nM | 55.2 nM | 21.1 nM | 86.1 nM |  |
| NS(=O)(=O)c1ccc(NC(=O)/C(Cl)=N/Nc2ccccc2)cc1 | 7360 nM | 68.1 nM | 40.6 nM | 227 nM |  |
| CC(=O)/C(=N\Nc1ccc(Br)cc1)C(=O)Nc1ccc(S(N)(=O)=O)cc1 | > 10000 nM | > 10000 nM | 371 nM | > 10000 nM |  |
| CC(=O)/C(=N\Nc1ccc(Cl)cc1)C(=O)Nc1ccc(S(N)(=O)=O)cc1 | > 10000 nM | 1690 nM | 5.2 nM | 2640 nM |  |
| NS(=O)(=O)c1ccc(NC(=O)/C(Cl)=N/Nc2ccc(F)cc2)cc1 | 7380 nM | 46.6 nM | 34.8 nM | 296 nM |  |
| NS(=O)(=O)c1ccc(NC(=O)/C(Cl)=N/Nc2ccc(Br)cc2)cc1 | > 10000 nM | 1030 nM | 262 nM | 926 nM |  |
| CC(=O)/C(=N\Nc1ccccc1)C(=O)Nc1ccc(S(N)(=O)=O)cc1 | > 10000 nM | 647 nM | 4.3 nM | 82.2 nM |  |
| CC(=O)/C(=C\c1cccc([N+](=O)[O-])c1)C(=O)Nc1ccc(S(N)(=O)=O)cc1 | 387 nM | 46.3 nM | 6.9 nM | 75.5 nM |  |
| CC(=O)/C(=C\c1ccccc1Cl)C(=O)Nc1ccc(S(N)(=O)=O)cc1 | 383 nM | 2.9 nM | 0.36 nM | 7.3 nM | 2 mmHg |
| CC(=O)CC(=O)Nc1ccc(S(N)(=O)=O)cc1 | 885 nM | 273 nM | 39.5 nM | 69.2 nM |  |
| CC(=O)/C(=N\Nc1ccc(C#N)cc1)C(=O)Nc1ccc(S(N)(=O)=O)cc1 | > 10000 nM | 762 nM | 52.2 nM | 513 nM |  |
| NS(=O)(=O)c1ccc(NC(=O)/C(Cl)=N/Nc2ccc(Cl)cc2)cc1 | 907 nM | 6.1 nM | 3 nM | 44.1 nM |  |
| CC(=O)/C(=N\Nc1ccc(F)cc1)C(=O)Nc1ccc(S(N)(=O)=O)cc1 | > 10000 nM | 3320 nM | 8.1 nM | 2670 nM |  |
| COc1ccc(N/N=C(\C(C)=O)C(=O)Nc2ccc(S(N)(=O)=O)cc2)cc1OC | 1480 nM | 4.4 nM | 5 nM | 59.3 nM |  |
